Laboratory results reported in patent US10046001B2, “Compositions and methods for reducing intraocular pressure” (UNIVERSITY OF MIAMI, priority 2013, dated 2018).

Tests used:
[1] = test system: assembled layers of primary TM cells; assay: fluorescein transport across assembled layers of primary TM cells in Using type chamber; assay type: cell-based, human; conditions: 10 pmole lipid, transport at 15 seconds
Source text: A pentalayer of cells were casted on a PVDF filter of 0.45 μm pore size with second to fourth layer topped with rat collagen. Control (without lipid treatment) or with 10 pmole of indicated lipid treated cells were used for these measurements. The transport of flourescein at 15 seconds from the opposite end after introduction of sample at one was estimated. Mean and standard deviation from three independent experiments have been presented. The relative transport has been divided into two zones (marked in yellow), that when the transport is above 0.48 but less than 0.62=1; and above 0.62=2 as indicated.
The transport of fluorescein across cell assembled layered TM cells was determined in an Using type chamber (FIG. 4). The five layers of primary TM cells with collagen matrix in between layers after the first layer were laid on a sterile PVDF membrane (0.45 μm pores). The fluorescein was introduced from one side of the port (the cellular side) and was sampled from another side (the membrane side) within 15 seconds of introduction. Differences in transport between the cell only control and cell treated with lipids for 1-3 hours prior to forming multi-layers (FIG. 4) was observed. The fluorescein transport was quantized and divided into two categories (marked with yellow zones) as 1 and 2 (FIG. 4).
Using type chamber experiments: An Using type chamber (cat #USS1L, World Precision Instrument, Inc.) was used to measure fluorescein flow (sodium fluorescein dye) across the PVDF membrane (cat #75696E Pall Life Sciences, Pensacola Fla.). Trabecular meshwork cells were cultured as described above on the PVDF membrane. Before plating the cells a layer of collagen matrix (Rat Tail Collagen, cat #BD 354249) was formed on the membrane to facilitate the adherence of TM cells to the membrane. The cells were allowed to form a confluent monolayer over a period of 16-24 hours and then another layer of cells was plated on this monolayer. This process was repeated to ultimately achieve a confluent tri-layer of cells. The cells were transfected with DNA of interest [TREK-1+cochlin, TREK-1 and RPE65, TREK-1, transfection agent (Lipofectamine 2000) (Invitrogen)] or left untransfected. 24-36 hours post transfection the membranes were placed between the hemi-chambers of the apparatus connected to a peristaltic pump creating flow across the membrane bathing in 1× DPBS. To measure the flow across the membrane, sodium flourescein dye was used (1:100 dilution of 1 mg/ml). The dye was introduced in one hemi-chamber and equal amounts (100 μl) were aspirated from the other hemi-chamber at 5 minutes post-injection. The fluorescein intensity was measured using the spectrophotometer.

[2] = test system: primary TM cells embedded in collagen gel; assay: collagen gel embedded expansion and/or contraction assay; assay type: cell-based, human; conditions: 10 pmole lipid, collagen column length at 24 hours
Experimental: About 10,000 primary TM cells were placed in a capillary tube with rat collagen without (control) or after treatment with 10 pmole of indicated lipid. The change in collagen column length was measured at the end of 24 hours. Mean and standard deviation from three independent experiments are presented. As shown by yellow/gray zones, the expansions were categorized into four zones (2, 3 and 4 are identified), 1=[…]; 2=1.0 to 1.4 mm; 3=>1.4 mm but <2.0 mm; 4=2.0 and >2.0 mm.
Properties of cell ensembles in embedded matrix and assembled layer of cells on filter membranes. Gel embedded primary TM cells in collagen matrix in capillary tubes were prepared following established protocols (Ilagan, R. et al. Biotechniques. 2010; 48: 153-5), and their ability within the first 24 hours for expansion or contraction of gels (control) or the cells which were subjected to treatment with lipids for 1 hour in serum free medium prior to gel embedding were determined. Lipids that modulate cell expansion in matrix embedded assay systems (FIG. 3) were found. […] The extent of expansion was divided into four zones 1, 2, 3, and 4 (FIG. 3). The higher the number, the greater is the expansion.
Collagen gel expansion and/or contraction assay: Hydro-gel solution was prepared using 10× MEM (cat #11430, Invitrogen), Sodium Bicarbonate (cat #55761 Sigma-Aldrich), L-Glutamine (Sigma-Aldrich), HEPES (cat #15630, Invitrogen). The following solution was aliquoted in separate tubes for each transfection type. Transfection complexes were prepared in individual tubes containing a mixture of the transfection agent (Lipofectamine 2000, Invitrogen) and desired DNA vectors in a ratio of 0.4 ug/uL, following the manufacturer's preparation guidelines. Trabecular meshwork cells were obtained from a confluent layer of trypsin-treated 25 cm^2 cell culture flask (cat #353109, Becton Dickinson, Franklin Lakes, N.J.) sedimented for 5 minutes at 800 RPM. Cell pellet was then re-suspended in serum free DMEM 1×, (Mediatech) media, thoroughly mixed and finally, equally aliquoted into each respective transfection-complex containing vessel. The reaction was allowed to occur for 45 minutes, after which it was terminated through addition of cell culture media and rat tail collagen (cat #354249, BD, San Jose, Calif.) to initiate gel polymerization. The suspension was gently mixed by aspiration and aspirated into 1 mL single use needle syringe and injected into a borosilicate glass capillary (O.D −1.0 mm, IN.D −0.75 mm) (cat #TW100-6, WPI) to approximately half of its volume. A digital picture snapshot was taken of all capillaries prepared against a blank background with a millimeter scale, repeated at 24 and 48 hours. The hydro-gel containing capillaries were incubated inside a moisture chamber to prevent dehydration in a cell line incubator at 37° C. and 5% CO2. Photographs obtained were analyzed using ImageJ (v.1.43u) measuring between chosen points on the opposite ends of the gel. Amassed length data was statistically analyzed using Microsoft Excel (XP).

[3] = test system: normotensive cynomolgus monkeys; assay: IOP and slit lamp examination in normotensive cynomolgus monkeys after topical lipid; assay type: in vivo
Experimental: Lipids were topically administered in 1 μl volume around ˜1 pm in the afternoon. The right eye was treated with vehicle alone, and the left eye was treated with lipid. The cynomolgus monkeys (n=4) were treated with […] lipid (except C17S1P which was 50 nM) for 5 days. Monkeys were subjected to slit lamp examination and IOP measurement prior to and after treatment. The IOP measured 3-6 hours post-treatment on the fifth day of treatment is depicted as solid bars. The hollow bars are control (vehicle only (5% DMSO)).
Experimental design: The IOP-reducing activity of six lipids was tested in the eyes of cynomolgus monkeys (n=4 animals for each lipid). Baseline slit lamp biomicroscopic examination (SLE) and IOP for each group of animals was measured prior to topical application of lipids. The SLE and IOP were then measured at 3-6 hours posttreatment. One eye of each monkey received topical application with the lipid suspended in vehicle (1% dimethylsulfoxide (DMSO)), and the contralateral eye was treated with vehicle only. All topical applications contained 10 picomole of lipid (except C17S1P, which was 50 nM). […] The IOP was measured using a minified Goldmann applanation tonometer.

Structure (SMILES)	transport of fluorescein in assembled layers of primary TM cells [1]	gel expansion/contraction of cells in artificial embedment [2]	IOP reduction ([3]; topical 10 picomole (C17S1P 50 nM), 5 days, IOP 3-6 hours post-treatment)	adverse side effects or toxicity ([3]; topical, slit lamp examination)
CCCCCCCCCCCCCCC[C@@H](O)[C@@H](N)CO [Sphinganine]	showed an effect	showed an effect		
CCCCCCCCCCCCCC[C@@H](O)[C@@H](N)COP(=O)(O)O [C17 Sphinganine-1-phosphate]	showed an effect	showed an effect	reduced IOP significantly	without additional adverse side effects or toxicity
CCCCCCCC/C=C\CCCCCCCC(=O)N[C@@H](CO)[C@H](O)CCCCCCCCCCCCCCC [Cer(d18:0/18:1(9Z))]	showed an effect	showed an effect		
CCCCC/C=C\C/C=C\C/C=C\C/C=C\CCCC(=O)O[C@H](COC(=O)CCCCCCCCCCCCCCCCC)COP(=O)(O)OC1[C@H](O)[C@H](O)C(O)[C@H](O)[C@H]1O (some centres unmarked) [PI(18:0/20:4)5Z,8Z,11Z,14Z))]	showed an effect	showed an effect		
CCCC/C=C\CCCCCCCC(=O)O[C@H](COC(=O)CCCCCCCCCCC)COP(=O)([O-])OCC[N+](C)(C)C [PC(12:0/14:1(9Z))]	lack of any effect	lack of any effect		
CCCC/C=C\C/C=C\CCCCCCCC(=O)O[C@H](COC(=O)CCCCCCCCCCC)COP(=O)(O)OC1C(O)C(O)C(O)[C@@H](O)C1O (some centres unmarked) [PI(12:0/17:2)9Z,12Z))]	showed an effect	showed an effect		
CCCCCCCC/C=C\CCCCCCCCCCCCCCCC(=O)N[C@@H](CO)[C@H](O)/C=C/CCCCCCCCCCCCC [Cer(d18:1/26:1(17Z))]	showed an effect	showed an effect		
CCCCCCCCCCCCCC(=O)OC[C@@H](O)COP(=O)(O)OC[C@H](N)C(=O)O [PS(14:0/0:0)]	showed an effect	showed an effect		
CCCCCCCCCCCCCCCCCC(=O)OC[C@@H](O)COP(=O)(O)OC[C@H](N)C(=O)O [PS(18:0/0:0)]	showed an effect	showed an effect		
CCCCCCCCCCCCCCCCCC(=O)OC[C@H](COP(=O)(O)OCCN)OC(=O)CCCCCCCCCCCCCCCCC [PE(18:0/18:0)]	showed an effect	showed an effect		
CCCCCCCCCCC/C=C/[C@@H](O)[C@H](COP(=O)([O-])OCC[N+](C)(C)C)NC(=O)CCCCCCCCCCCCCCCCCCCCCCCC [SM(d16:1/25:0)]	showed an effect	showed an effect		
CCCCCCCCCCCCC(=O)OC[C@H](COP(=O)([O-])OCC[N+](C)(C)C)OC(=O)CCCCCCCCCCCC [PC(13:0/13:0), 1,2-ditridecanoyl-sn-glycero-3-phosphocholine, reference compound]	lack of any effect	lack of any effect		
